IC50 data for 17 molecules are collected here from patent US10428080B2, “TBK/IKK inhibitor compounds and uses thereof” (Merck Patent GmbH, priority 2015, dated 2019).

The term IC50 denotes the point on the concentration scale where inhibition reaches its midpoint.

The test system of test [1] is phosphorylation of the IRF-3 protein in MDA-MB-468 cells. The experiment in a line: pIRF3 immunocytochemistry cell based assay. Particulars: Homo sapiens; MDA-MB-468 cells, Poly(I:C) stimulation; read-out: pIRF3 IC50. An outline of the steps: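 After 2 h stimulation with Poly(I:C) (10 ug/ml), following 1 h compound pre-treatment (10-point, 3-fold dilution, top 10 uM), MDA-MB-468 cells were fixed and stained with anti-pIRF3 antibody. pIRF3 fluorescence was normalized to PI staining or cell count on an Acumen cytometer. IC50 curves were derived from this.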

For a further test, the target named is T1, TBK1 (Homo sapiens, UniProt Q9UHD2).
T1 sequence (Q9UHD2 1-729): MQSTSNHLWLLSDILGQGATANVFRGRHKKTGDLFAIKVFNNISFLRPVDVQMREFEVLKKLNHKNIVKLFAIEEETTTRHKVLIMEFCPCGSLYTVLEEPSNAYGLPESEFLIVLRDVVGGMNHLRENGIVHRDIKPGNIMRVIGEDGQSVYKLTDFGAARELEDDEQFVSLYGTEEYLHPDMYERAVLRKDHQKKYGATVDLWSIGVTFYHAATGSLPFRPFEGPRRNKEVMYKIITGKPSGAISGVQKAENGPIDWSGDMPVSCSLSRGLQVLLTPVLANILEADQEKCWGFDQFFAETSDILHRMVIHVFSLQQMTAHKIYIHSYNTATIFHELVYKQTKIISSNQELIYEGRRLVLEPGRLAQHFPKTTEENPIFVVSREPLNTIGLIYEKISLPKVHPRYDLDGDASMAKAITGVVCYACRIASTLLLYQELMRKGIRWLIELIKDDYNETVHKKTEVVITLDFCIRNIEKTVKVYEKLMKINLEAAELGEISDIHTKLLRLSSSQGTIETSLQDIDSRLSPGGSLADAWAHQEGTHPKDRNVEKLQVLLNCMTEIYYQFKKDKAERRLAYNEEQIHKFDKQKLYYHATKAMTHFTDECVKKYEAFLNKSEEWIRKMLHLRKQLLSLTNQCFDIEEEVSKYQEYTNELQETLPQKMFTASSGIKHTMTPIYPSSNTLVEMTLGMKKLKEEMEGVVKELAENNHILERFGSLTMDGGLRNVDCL
Put plainly: TBK Biochemical Assay. Particulars: read-out: TBK1 IC50. An outline of the steps: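 Caliper LabChip mobility-shift readout of substrate and product after 90 min of TBK1 reaction at 25° C and stop-buffer addition. Compounds tested in 1:4 serial dilution over 10 points from 30 uM final at 1% DMSO; staurosporine 10 uM final defines full inhibition.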

The next test has as its target T2, IKKε (Homo sapiens, UniProt Q14164).
T2 sequence (Q14164 1-716): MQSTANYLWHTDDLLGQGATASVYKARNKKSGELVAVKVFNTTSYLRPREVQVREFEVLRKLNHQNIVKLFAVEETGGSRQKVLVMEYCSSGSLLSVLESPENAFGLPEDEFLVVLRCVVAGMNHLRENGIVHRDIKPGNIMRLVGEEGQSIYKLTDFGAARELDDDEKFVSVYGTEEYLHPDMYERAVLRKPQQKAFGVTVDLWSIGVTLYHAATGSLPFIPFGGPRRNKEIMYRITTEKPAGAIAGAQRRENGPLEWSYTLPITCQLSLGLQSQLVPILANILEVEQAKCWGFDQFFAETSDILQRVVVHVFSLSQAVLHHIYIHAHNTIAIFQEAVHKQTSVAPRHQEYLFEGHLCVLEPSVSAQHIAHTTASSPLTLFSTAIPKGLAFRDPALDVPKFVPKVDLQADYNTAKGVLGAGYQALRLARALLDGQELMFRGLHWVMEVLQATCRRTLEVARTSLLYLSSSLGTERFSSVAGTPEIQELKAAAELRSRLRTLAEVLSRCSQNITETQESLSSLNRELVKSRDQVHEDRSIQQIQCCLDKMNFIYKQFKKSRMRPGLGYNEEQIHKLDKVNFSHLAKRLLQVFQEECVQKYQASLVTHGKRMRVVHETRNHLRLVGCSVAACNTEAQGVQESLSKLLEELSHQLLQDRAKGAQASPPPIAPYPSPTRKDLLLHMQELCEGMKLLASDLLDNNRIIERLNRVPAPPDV
The experiment in a line: IKKe Biochemical Assay. Particulars: read-out: IKKε IC50. The method in brief: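 Activity was measured as mobility-shift separation of phosphorylated from unphosphorylated substrate on a LabChip EZ Reader. Compound was titrated from 30 uM final in 10 points, 1:4 steps, with 1% DMSO, and enzyme plus substrate reacted 90 min at 25° C before stop buffer. Control wells held 10 uM staurosporine.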

For `COc1cc(C(=O)NCC(C)(C)N(C)C)ccc1-c1cc2nccc(-c3ccc(OC4CCOCC4)c(C#N)c3)c2o1` [Compound 500, 4-{7-[3-Cyano-4-(tetrahydro-pyran-4-yloxy)-phenyl]-furo[3,2-b]pyridin-2-yl}-N-(2-dimethylamino-2-methyl-propyl)-3-methoxy-benzamide], the IC50 in test [1] was 0.1 to 1 µM; on TBK1 it was less than 0.1 µM; on IKKε it was less than 0.1 µM.

`COc1cc(C(=O)N2CC3CN(C)CC3C2)ccc1-c1cc2nccc(-c3ccc(N4CC[C@@H](F)C4)c(C#N)c3)c2o1` (stereo partly drawn) [Compound 501]: the figures for the IC50 (in test [1]; at TBK1; at IKKε) were 0.1 to 1 µM, less than 0.1 µM and less than 0.1 µM, respectively.

For `COc1cc(C(=O)NC(C)(C)CN(C)C)ccc1-c1cc2nccc(-c3ccc(NC4C5COCC54)c(C#N)c3)c2o1` (stereo not drawn) [Compound 502, N-(2-dimethylamino-1,1-dimethyl-ethyl)-4-{7-[3-cyano-4-(3-oxa-bicyclo[3.1.0]hex-6-ylamino)-phenyl]-furo[3,2-b]pyridin-2-yl}-3-methoxy-benzamide], the results for the IC50 (in test [1]; on TBK1; on IKKε) were 0.1 to 1 µM, less than 0.1 µM and less than 0.1 µM, respectively.

As to `COc1cc(C(=O)N2CC3CCC2CN3C)ccc1-c1cc2nccc(-c3ccc(OC4CCOCC4)c(C#N)c3)c2o1` (stereo not drawn) [Compound 503], the IC50 (in test [1]; on TBK1; on IKKε) was less than 0.1 µM throughout.

As for `COc1cc(C(=O)N2CC3COCC3C2)ccc1-c1cc2nccc(-c3ccc(OC4CCOCC4)c(C#N)c3)c2o1` (stereo not drawn) [Compound 504], the IC50 in test [1] was 0.1 to 1 µM; on TBK1 it was less than 0.1 µM; at IKKε, less than 0.1 µM.

In the case of `COc1cc(C(=O)NC(C)(C)CCN(C)C)ccc1-c1cc2nccc(-c3ccc(OC4CCOCC4)c(C#N)c3)c2o1` [Compound 505, 4-{7-[3-Cyano-4-(tetrahydro-pyran-4-yloxy)-phenyl]-furo[3,2-b]pyridin-2-yl}-N-(3-dimethylamino-1,1-dimethyl-propyl)-3-methoxy-benzamide], the figures for the concentration for half-maximal inhibition (IC50) (in test [1]; at TBK1; at IKKε) were 0.1 to 1 µM, less than 0.1 µM and less than 0.1 µM, respectively.

`COc1cc(C(=O)NCC(C)(C)CN(C)C)ccc1-c1cc2nccc(-c3ccc(OC4CCOCC4)c(C#N)c3)c2o1` [Compound 506, 4-{7-[3-Cyano-4-(tetrahydro-pyran-4-yloxy)-phenyl]-furo[3,2-b]pyridin-2-yl}-N-(3-dimethylamino-2,2-dimethyl-propyl)-3-methoxy-benzamide]: the figures for the IC50 (in test [1]; on TBK1; on IKKε) were 0.1 to 1 µM, less than 0.1 µM and less than 0.1 µM, respectively.

As for `COc1cc(C(=O)N2C[C@@H]3C[C@H]2CN3C)ccc1-c1cc2nccc(-c3ccc(OC4CCOCC4)c(C#N)c3)c2o1` [Compound 508], the half-inhibitory concentration (IC50) (in test [1]; on TBK1; on IKKε) was less than 0.1 µM throughout.

For `COc1cc(C(=O)N2C3CCCC2CC3)ccc1-c1cc2nccc(-c3ccc(OC4CCOCC4)c(C#N)c3)c2o1` [Compound 509], the figures for the IC50 (in test [1]; at TBK1; on IKKε) were 0.1 to 1 µM, less than 0.1 µM and less than 0.1 µM, respectively.

Consider `COc1cc(C(=O)N2CC3CCC2CN3C)ccc1-c1cc2nccc(-c3ccc(NC4CCOCC4)c(C#N)c3)c2o1` (stereo not drawn) [Compound 510], for which the half-inhibitory concentration (IC50) (in test [1]; at TBK1; on IKKε) was less than 0.1 µM in each case.

As to `COc1cc(C(=O)N2CC3COCC3C2)ccc1-c1cc2nccc(-c3ccc(NC4CCOCC4)c(C#N)c3)c2o1` (stereo not drawn) [Compound 513], the IC50 (in test [1]; at TBK1; at IKKε) was less than 0.1 µM in each case.

As to `COc1cc(C(=O)NC(C)(C)CCN(C)C)ccc1-c1cc2nccc(-c3ccc(NC4CCOCC4)c(C#N)c3)c2o1` [Compound 514, 4-{7-[3-Cyano-4-(tetrahydro-pyran-4-ylamino)-phenyl]-furo[3,2-b]pyridin-2-yl}-N-(3-dimethylamino-1,1-dimethyl-propyl)-3-methoxy-benzamide], the IC50 (in test [1]; on TBK1; on IKKε) was less than 0.1 µM in each case.

`COc1cc(C(=O)N2C[C@@H]3C[C@H]2CN3C)ccc1-c1cc2nccc(-c3ccc(NC4CCOCC4)c(C#N)c3)c2o1` [Compound 515]: the concentration for half-maximal inhibition (IC50) (in test [1]; at TBK1; at IKKε) was less than 0.1 µM throughout.

With `COc1cc(C(=O)NCC(C)(C)CN(C)C)ccc1-c1cc2nccc(-c3ccc(NC4CCOCC4)c(C#N)c3)c2o1` [Compound 516, 4-{7-[3-Cyano-4-(tetrahydro-pyran-4-ylamino)-phenyl]-furo[3,2-b]pyridin-2-yl}-N-(3-dimethylamino-2,2-dimethyl-propyl)-3-methoxy-benzamide], the IC50 (in test [1]; at TBK1; on IKKε) was less than 0.1 µM in each case.

Consider `COc1cc(C(=O)N2C[C@H]3C[C@@H]2CN3C)ccc1-c1cc2nccc(-c3ccc(NC4CCOCC4)c(C#N)c3)c2o1` [Compound 517], for which the IC50 (in test [1]; at TBK1; at IKKε) was less than 0.1 µM in each case.

For the molecule `COc1cc(C(=O)N2C3CCCC2CC3)ccc1-c1cc2nccc(-c3ccc(NC4CCOCC4)c(C#N)c3)c2o1` [Compound 519], the values for the IC50 (in test [1]; on TBK1; on IKKε) were 0.1 to 1 µM, less than 0.1 µM and less than 0.1 µM, respectively.

For `COc1cc(C(=O)N(C)C)ccc1-c1cc2nccc(-c3ccc(NC4CCNC4)c(C#N)c3)c2o1` (stereo not drawn) [Compound 521], the concentration for half-maximal inhibition (IC50) (in test [1]; on TBK1; at IKKε) was less than 0.1 µM each time.
